Counter-ions that a name gives are not always drawn. Like-named read-outs stand apart in the source and are kept apart here. Bounds are passed on as bounds.

For one data set, the system named is α-glucosidase (yeast). Particulars: cited from earlier work.
The target in data set [1] is ER glucosidase II (rat liver). To be noted: read-out: Inhibitory activity IC50; cited from earlier work.
The test system of data set [2] is SARS-CoV-2. Particulars: Vero E6 cells; cited from earlier work.
In another data set the target is yeast α-glucosidase (Saccharomyces cerevisiae, UniProt P53341). In kind it is biochemical.
A further data set deals with A549-ACE2 cells. Kind of data set: Cell toxicity assay. It counts as cell-based, human.
The next data set has as its target α-glucosidase in rice. Particulars: cited from earlier work.
Another data set has as its target T1, human α-galactosidase A (Homo sapiens, UniProt P06280).
T1 sequence (P06280 32-429): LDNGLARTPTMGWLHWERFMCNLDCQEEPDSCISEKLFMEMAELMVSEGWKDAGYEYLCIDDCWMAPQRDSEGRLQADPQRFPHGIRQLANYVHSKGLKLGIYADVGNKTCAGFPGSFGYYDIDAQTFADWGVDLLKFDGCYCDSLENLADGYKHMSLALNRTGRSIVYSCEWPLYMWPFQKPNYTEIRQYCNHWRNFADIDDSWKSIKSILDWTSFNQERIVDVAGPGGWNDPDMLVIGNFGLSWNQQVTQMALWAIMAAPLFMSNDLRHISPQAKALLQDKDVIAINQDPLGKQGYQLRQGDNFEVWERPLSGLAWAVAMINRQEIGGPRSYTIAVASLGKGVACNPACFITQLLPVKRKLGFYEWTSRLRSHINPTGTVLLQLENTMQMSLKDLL
In kind it is biochemical.

In data set [3] the test system is influenza haemagglutinin folding process in ER. Particulars: cited from earlier work.
For data set [4], the system named is SARS-CoV-2. Particulars: A549-ACE2 cells; cited from earlier work.
The test system of a further data set is severe COVID-19. Particulars: severe COVID-19 patients; cited from earlier work.

Sequence of yeast α-glucosidase (P53341 whole entry): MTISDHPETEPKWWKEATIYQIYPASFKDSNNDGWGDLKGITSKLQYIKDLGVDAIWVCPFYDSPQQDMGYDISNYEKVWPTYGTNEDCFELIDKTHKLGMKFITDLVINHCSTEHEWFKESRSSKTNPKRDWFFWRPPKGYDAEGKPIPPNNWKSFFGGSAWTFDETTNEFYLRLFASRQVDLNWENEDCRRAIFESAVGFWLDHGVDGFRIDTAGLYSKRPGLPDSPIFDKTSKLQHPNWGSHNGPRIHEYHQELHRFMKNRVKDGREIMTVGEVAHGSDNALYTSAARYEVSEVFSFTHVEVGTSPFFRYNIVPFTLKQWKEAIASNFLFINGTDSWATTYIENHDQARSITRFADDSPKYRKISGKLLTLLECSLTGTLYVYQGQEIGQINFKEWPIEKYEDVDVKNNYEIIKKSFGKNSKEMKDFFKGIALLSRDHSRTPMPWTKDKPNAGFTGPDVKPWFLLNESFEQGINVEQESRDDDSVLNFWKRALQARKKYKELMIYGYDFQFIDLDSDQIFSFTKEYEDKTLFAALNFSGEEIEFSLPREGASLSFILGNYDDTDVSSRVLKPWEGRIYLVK

A word on the IC50: it is the midpoint of a concentration-inhibition curve. In general, EC50 refers to the midpoint of the concentration-response curve. Take `CCCCN1C[C@H](O)[C@@H](O)[C@H](O)[C@H]1CO` [Compound 1, N-butyldeoxynojirimycin]: the “Inhibitory activity, % at 1 mM” value in the data set on α-glucosidase (yeast) (1 mM) was 12.7%. In addition, the IC50 in data set [1] was 13 µM; on yeast α-glucosidase, more than 500 µM. In addition, the concentration for a half-maximal effect (EC50) in the data set with SARS-CoV-2 [2] was 41 ± 22 µM. Take `OC[C@H]1NC[C@H](O)[C@@H](O)[C@@H]1O` [Compound 2, deoxynojirimycin]: in data set [1], the IC50 is 16 µM. Take `O[C@H]1[C@H]2[C@H](O)CCCN2C[C@H]1O` [Compound 3, swainsonine]: the “cytotoxicity at EC90 concentrations” value in the data set with A549-ACE2 cells was “cytotoxicity at EC90 concentrations”. Take `OCCN1C[C@H](O)[C@@H](O)[C@H](O)[C@H]1CO` [Compound 8, miglitol]: the IC50 is more than 1000 µM at α-glucosidase (yeast); 9880 µM at α-glucosidase (yeast) (read-out: Inhibitory activity IC50, ref 37); 41.3 µM at α-glucosidase (yeast) (read-out: Inhibitory activity IC50, ref 46); 0.05 µM at α-glucosidase in rice; more than 500 µM on yeast α-glucosidase. In the case of `OC[C@@H]1[C@@H](O)[C@H](O)[C@@H](O)CN1CCCCCC12CC(C1)C2` [Compound 22, (2 R,3R,4R,5S)-1–(5-(Bicyclo[1.1.1]pentan-1-yl)pentyl)-3,4,5-trihydroxy-2-(hydroxymethyl)piperidin-1-ium chloride], on yeast α-glucosidase, the midpoint of inhibition, the IC50, lay at 218 µM. `OC[C@H]1NNC[C@@H](O)[C@H]1O` [Compound 40, (3 R,4S,5R)-3-(hydroxymethyl)hexahydropyridazine-4,5-diol hydrochloride] gave a concentration for half-maximal inhibition (IC50) against human α-galactosidase A of more than 100 µM. For the compound `CC/C(=C(\c1ccccc1)c1ccc(OCCN(C)C)cc1)c1ccccc1` [Compound 72, tamoxifen], the “cytotoxicity, concentration relative to antiviral EC90” value with A549-ACE2 cells is on record as 100 fold. At yeast α-glucosidase, `CN1C[C@H](O)[C@@H](O)[C@H](O)[C@H]1CO` [Compound 75, (2R,3R,4R,5S)-2-(hydroxymethyl)-1-methylpiperidine-3,4,5-triol] had an IC50 of 572 µM. On the same count and under the same terms, the figure for `CCCCCCCCCN1C[C@H](O)[C@@H](O)[C@H](O)[C@H]1CO` [Compound 76, (2R,3R,4R,5S)-2-(hydroxymethyl)-1-nonylpiperidine-3,4,5-triol] is 70 µM.

Regarding `OC[C@@H]1[C@@H](O)[C@H](O)[C@@H](O)CN1CCCCCOCC12CC3CC(CC(C3)C1)C2` [Compound 77, (2 R,3R,4R,5S)-1–(5-(adamantan-1-ylmethoxy)pentyl)-2-(hydroxymethyl)piperidine-3,4,5-triol], in data set [3], the “concentration at which inhibition occurred” value is recorded as 200 µM. For the same compound, at yeast α-glucosidase, the IC50 was determined as 67 µM. Regarding `CN1C[C@H](O)[C@@H](O)[C@@H](O)[C@H]1CO` [Compound 87, (2R,3S,4R,5S)-2-(hydroxymethyl)-1-methylpiperidine-3,4,5-triol], it took 5.1 µM to reach half-maximal inhibition on human α-galactosidase A (IC50). Same read-out and setting: the result for `CCCCCCCCCN1C[C@H](O)[C@@H](O)[C@@H](O)[C@H]1CO` [Compound 89, (2R,3S,4R,5S)-2-(hydroxymethyl)-1-nonylpiperidine-3,4,5-triol] reads more than 100 µM; that for `CCCCCCCCCN1CC[C@@H](O)[C@@H](O)[C@H]1CO` [Compound 94, (2R,3S,4R)-2-(hydroxymethyl)-1-nonylpiperidine-3,4-diol], more than 100 µM; that for `CN1NC[C@@H](O)[C@@H](O)[C@H]1CO` [Compound 104, (4R,5S,6R)-6-(hydroxymethyl)-1-methylhexahydropyridazine-4,5-diol hydrochloride], more than 100 µM.

Take `COCCCCCCCCCN1C[C@H](O)[C@@H](O)[C@H](O)[C@H]1CO` [UV-4]: in the data set on SARS-CoV-2 [4], the EC50 is 4 µM. With `CCCC(=O)O[C@H]1CN2CC[C@H](O)[C@@H]2[C@@H](O)[C@@H]1O` [celgosivir], the EC50 in the data set with SARS-CoV-2 [2] is 1 ± 0.2 µM. Consider `C[C@@H]1C[C@H]2[C@@H]3CCC4=CC(=O)C=C[C@]4(C)[C@@]3(F)[C@@H](O)C[C@]2(C)[C@@]1(O)C(=O)CO` [dexamethasone], for which the reduction of mortality in the data set on severe COVID-19 is listed as 30%.
